Laboratory results from paper PMC7997574, “Lead Optimization of Benzoxazolone Carboxamides as Orally Bioavailable and CNS Penetrant Acid Ceramidase Inhibitors” (Journal of Medicinal Chemistry, 2020).
Converted amounts (≈) assume the structure as drawn. Like-named read-outs stand apart in the source and are kept apart here.

Experiments:
[1] = Chemical stability assay in PBS pH 7.4; type: physicochemical; settings: phosphate-buffered saline; PBS, pH 7.4; read-out: chemical stability t1/2
Protocol: Chemical stability of selected compounds was evaluated under physiological pH conditions (0.01 M phosphate-buffered saline, pH 7.4) for up to 8 h. The buffer was added with 10% MeCN. Stock solutions of each compound (10 mM) were freshly prepared in MeCN. Each compound was incubated at a final concentration of 1 μM in preheated buffer (37 °C). The sample solutions were divided into aliquots in glass vials (preheated at 37 °C) for each time point. The samples were maintained at 37 °C in the UPLC/MS autosampler during the study (no shaking). A reference solution of each compound (final concentration: 1 μM) in preheated MeCN was prepared from the stock solutions and maintained at 37 °C in the UPLC/MS autosampler during the study. For each time point, the samples were analyzed directly by LC/MS without any further sample preparation. The samples were analyzed by integrating the corresponding MRM peak areas. The relative compound concentration was calculated by dividing the peak area at each time point by the peak area at t = 0 min. The reference solution was analyzed at the beginning (t = 0 min) and at the end of the study (t = 8 h). The apparent half-life (t1/2) of the disappearance of the compound was calculated using the best fitting equation by GraphPad Prism (GraphPad Software, Inc., USA). The analyses were performed on a Waters ACQUITY UPLC/MS TQD system consisting of a triple quadrupole detector (TQD) MS equipped with an ESI interface and a photodiode array detector. The analyses were run on an ACQUITY UPLC BEH C18 1.7 μm 2.1 × 50 mm column with a VanGuard BEH C18 1.7 μm preolumn at 40 °C. For each compound, the appropriate mobile phase was chosen. ESI was applied in positive mode. Values are the mean of at least two independent experiments performed in two technical replicates.

[2] = molecular target: T1, AC (Homo sapiens, UniProt Q13510); assay: Fluorogenic hAC assay on hAC-enriched lysate of HEK293 cells; type: biochemical; set-up: expressed in transfected cells
T1 sequence (Q13510 22-395): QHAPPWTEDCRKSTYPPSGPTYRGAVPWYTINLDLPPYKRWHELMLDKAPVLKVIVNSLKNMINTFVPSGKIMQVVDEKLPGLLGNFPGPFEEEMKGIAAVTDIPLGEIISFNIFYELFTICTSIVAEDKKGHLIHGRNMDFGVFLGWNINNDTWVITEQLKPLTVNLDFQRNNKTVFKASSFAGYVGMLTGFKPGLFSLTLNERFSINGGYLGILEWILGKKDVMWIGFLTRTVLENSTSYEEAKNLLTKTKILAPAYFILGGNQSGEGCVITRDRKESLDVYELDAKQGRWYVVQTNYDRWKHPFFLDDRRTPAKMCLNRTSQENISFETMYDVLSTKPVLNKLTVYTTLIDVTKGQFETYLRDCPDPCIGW
Protocol: HEK293 cells stably expressing hAC were grown in Dulbecco’s modified Eagle medium (DMEM) containing 10% FBS, 1% glutamine, 1 mM sodium pyruvate, and 500 μg mL^–1 G418. Cells were harvested, and pellets were stored at −80 °C until lysosomal-enriched lysate preparation. Cells were suspended in 20 mM Tris HCl (pH 7.5) with 0.32 M sucrose, sonicated, and centrifuged at 800 × g for 30 min at 4 °C. Supernatants were then centrifuged at 12000 × g for 30 min at 4 °C. Pellets were resuspended in PBS (pH 7.4) and subjected to three freeze–thaw cycles at −80 °C. The suspension was finally centrifuged at 105000 × g for 1 h at 4 °C, and protein concentration was measured in the supernatant with the bicinchoninic acid based protein assay. This hAC-enriched preparation allowed us to further optimize the enzymatic assay and to use small amounts of lysate (2 μg per well) at a 5 μM substrate (Rbm14–12) around its KM (KM = 5.0 μM).
The assay was performed in Optiplate 96-well black plates, with each reaction well containing a mixture of 25 mM NaOAc buffer (pH 4.5) and a fixed amount of protein (2 μg) in a volume of 85 μL. After 10 min of preincubation with test compounds (diluted 20× from DMSO stock solutions at different concentrations), the fluorogenic probe was added (diluted 40× from EtOH stock solution, final concentration 5 μM). After 3 h of incubation at 37 °C, reactions were stopped with 50 μL of MeOH and 100 μL of a 2.5 mg mL^–1 NaIO4 fresh solution in 100 mM glycine/NaOH buffer (pH 10.6). The plates were further incubated for 2 h at 37 °C in the dark, and fluorescence intensities were measured at excitation/emission wavelengths of 355/460 nm. Negative control samples consisted of the same incubation mixture in the absence of protein-enriched extracts. Data were plotted as a function of compound concentrations. IC50 values were calculated by nonlinear regression analysis using GraphPad Prism 5 (GraphPad Software Inc., CA, USA) applying a standard slope curve fitting. The reported IC50 values are the mean of at least three independent experiments performed in three technical replicates.

[3] = In vitro microsomal stability study; type: in vitro ADME; settings: mouse liver microsomes; for m-LM [% at 60 min]: % remaining at 60 min; for half-life at 4.6 μM / half-life at 1 h, 4.6 µM: pH 7.4, read-out: m-LM t1/2
Protocol: Freshly prepared 10 mM MeCN stock solution of test compound was preincubated at 37 °C for 15 min with mouse liver microsomes added in 0.1 M Tris HCl buffer (pH 7.4). The final concentration was 4.6 μM. After preincubation, the cofactors (NADPH, G6P, G6PDH, and MgCl2 predissolved in 0.1 M Tris HCl) were added to the incubation mixture, and the incubation was continued at 37 °C for 1 h. At each time point (0, 5, 15, 30, and 60 min), 30 μL of incubation mixture was diluted with 200 μL of cold MeCN spiked with 200 nM internal standard followed by centrifugation at 3300 × g for 15 min. The supernatant was further diluted with H2O (1:1) for analysis. The concentration of the test compound was quantified by LC/MS/MS on a Waters ACQUITY UPLC/MS TQD system consisting of a TQD MS equipped with an ESI interface. The analyses were run on an ACQUITY UPLC BEH C18 (50 × 2.1 mm ID, particle size 1.7 μm) with a VanGuard BEH C18 precolumn (5 × 2.1 mm ID, particle size 1.7 μm) at 40 °C. For each compound, the appropriate mobile phase was chosen. ESI was applied in positive mode. The percentage of test compound remaining at each time point relative to t = 0 was calculated. t1/2 was determined by a one-phase decay equation using a nonlinear regression of compound concentration vs time. Values are the mean of at least two independent experiments performed in two technical replicates.

[4] = Aqueous kinetic solubility assay; type: physicochemical; settings: PBS, pH 7.4
Protocol: The aqueous kinetic solubility was determined from a 10 mM MeCN stock solution of test compound in Phosphate-Buffered Saline (PBS) at pH 7.4. The study was performed by incubation of an aliquot of 10 mM MeCN stock solution in PBS (pH 7.4) at a target concentration of 250 μM. The incubation was carried out under shaking at 25 °C for 1 h followed by centrifugation at 21100 × g for 30 min. The supernatant was analyzed by UPLC/MS for the quantification of the dissolved compound (in μM) by UV at a specific wavelength (215 nm). […] The UPLC/MS analyses were performed on a Waters ACQUITY UPLC/MS system consisting of a single quadrupole detector (SQD) Mass Spectrometer (MS) equipped with an Electrospray Ionization (ESI) interface and a Photodiode Array Detector (PDA). The PDA range was 210–400 nm. ESI in positive mode was used in the mass scan range of 100–650 Da. The analyses were run on an ACQUITY UPLC BEH C18 column (50 × 2.1 mm ID, particle size 1.7 μm) with a VanGuard BEH C18 precolumn (5 × 2.1 mm ID, particle size 1.7 μm), using 10 mM NH4OAc in H2O at pH 5 adjusted with AcOH (A) and 10 mM NH4OAc in MeCN/H2O (95:5) at pH 5 (B) as the mobile phase. Values are reported as mean values of ≥2 experiments performed.

[5] = In vitro plasma stability study; type: in vitro ADME; settings: mouse plasma; read-out: m-plasma t1/2
Protocol: Freshly prepared 10 mM MeCN stock solution of test compound was diluted 50-fold with DMSO/H2O (1:1) and incubated at 37 °C for 2 h with mouse plasma added in 5% DMSO (preheated at 37 °C for 10 min). The final concentration was 2 μM. At each time point (0, 5, 15, 30, 60, and 120 min), 50 μL of incubation mixture was diluted with 200 μL of cold MeCN spiked with 200 nM internal standard followed by centrifugation at 3300 × g for 20 min. The supernatant was further diluted with H2O (1:1) for analysis. The concentration of test compound was quantified by LC/MS/MS on a Waters ACQUITY UPLC/MS TQD system consisting of a TQD MS equipped with an ESI interface. The analyses were run on an ACQUITY UPLC BEH C18 (50 × 2.1 mm ID, particle size 1.7 μm) with a VanGuard BEH C18 precolumn (5 × 2.1 mm ID, particle size 1.7 μm) at 40 °C. For each compound, the appropriate mobile phase was chosen. ESI was applied in positive mode. The response factors, calculated on the basis of the internal standard peak area, were plotted over time. When possible, response vs time profiles were fitted with Prism (GraphPad Software, Inc., USA) to estimate compound t1/2 in plasma. Values are the mean of at least two independent experiments performed in two technical replicates.

[6] = hAC expressed in HEK-293 cells, read-out: hAC IC50 (μM)±SD
[7] = supplementary csv, read-out: hAC, IC50

Structure (SMILES)	half-life at 1 μM [1]	IC50 ([2]; read-out: hAC IC50)	m-LM [% at 60 min] [3]	half-life at 4.6 μM [3]	IC50 [2, 6]	solubility at 1 h [4]	half-life at 2 µM [5]	half-life at 1 h, 4.6 µM [3]	IC50 [2, 7]
O=C(NCCCCc1ccccc1)n1c(=O)oc2cnccc21 [8b, 2-Oxo-N-(4-phenylbutyl)oxazolo[5,4-c]pyridine-1-carboxamide]	< 15 min	0.003 µM	–	–	–	–	–	–	–
Cl.O=C(NCCCCc1ccccc1)n1c(=O)oc2cc(C3CCNCC3)ccc21 [22d, 2-Oxo-N-(4-phenylbutyl)-6-(4-piperidyl)-1,3-benzoxazole-3-carboxamide Hydrochloride]	–	–	70%	> 60 min	0.134 ± 0.014 µM	150 µM	60 min	–	–
CN1CCC(c2ccc3c(c2)oc(=O)n3C(=O)NCCCCc2ccccc2)CC1 [22e, 6-(1-Methyl-4-piperidyl)-2-oxo-N-(4-phenylbutyl)-1,3-benzoxazole-3-carboxamide]	–	–	–	–	0.129 ± 0.008 µM	120 µM (≈ 48.9 µg/mL)	50 min	40 min	–
CC(C)CNC(=O)n1c(=O)oc2cc(C3CCCN(C)C3)ccc21 (racemic) [compound 27, (±)-N-Isobutyl-6-(1-methyl-3-piperidyl)-2-oxo-1,3-benzoxazole-3-carboxamide]	–	–	70%	> 60 min	1.75 ± 0.705 µM	> 250 µM	50 min	–	1.62 ± 0.649 µM
Cl.O=C(NCCCCc1ccccc1)n1c(=O)oc2cc(N3CCNCC3)ccc21 [23e, 2-Oxo-N-(4-phenylbutyl)-6-piperazin-1-yl-1,3-benzoxazole-3-carboxamide Hydrochloride]	–	–	–	–	0.363 ± 0.18 µM	20 µM	30 min	45 min	–
CN1CCN(c2ccc3c(c2)oc(=O)n3C(=O)NCCCCc2ccccc2)CC1=O [23j, 6-(4-Methyl-3-oxo-piperazin-1-yl)-2-oxo-N-(4-phenylbutyl)-1,3-benzoxazole-3-carboxamide]	–	–	–	–	0.092 ± 0.026 µM	< 1 µM	20 min	30 min	–
CC(C)CNC(=O)n1c(=O)oc2cc(C3CCCCN3C)ccc21 (racemic) [compound 26, (±)-N-Isobutyl-6-(1-methyl-2-piperidyl)-2-oxo-1,3-benzoxazole-3-carboxamide]	–	–	–	–	1.01 ± 0.432 µM	190 µM (≈ 63 µg/mL)	30 min	15 min	1.19 ± 0.435 µM
O=C(NCCCCc1ccccc1)n1c(=O)oc2cc(C3CCN(CC(F)F)CC3)ccc21 [22r, 6-[1-(2,2-Difluoroethyl)-4-piperidyl]-2-oxo-N-(4-phenylbutyl)-1,3-benzoxazole-3-carboxamide]	–	–	–	–	0.095 ± 0.03 µM	< 1 µM	50 min	20 min	–
CN1CCC(c2ccc3c(c2)oc(=O)n3C(=O)NCCCCc2ccccc2)CC1=O (centres unmarked) [22q, 6-(1-Methyl-2-oxo-4-piperidyl)-2-oxo-N-(4-phenylbutyl)-1,3-benzoxazole-3-carboxamide]	–	–	–	–	0.105 ± 0.055 µM	20 µM (≈ 8.43 µg/mL)	36 min	35 min	–
